Experimental data: a melting point compilation (Tetko et al.; mined from patent text by program, amines drawn as free bases though some values may be those of a salt)

Row | SMILES | melting point
1 | COc1ccc(-n2nc3c4c([nH]cc-3c2=O)CCCCCC4)cc1 | 275 to 277 °C
2 | CNC1=Nc2ccccc2C(O)(c2ccccc2)C1(C)C (stereo unspecified) | 192 to 194 °C
3 | CC(C)n1nc(-c2sc(Nc3cccc4ccccc34)nc2-c2ccccc2)ccc1=O | 239 to 240 °C
4 | FC(F)(F)c1ccc(-c2cc(Oc3cncc4ccccc34)ncn2)cc1 | 206 to 211 °C
5 | COC1(Cl)C=C(F)C=C(C=O)C1 (stereo unspecified) | 59 to 61 °C
6 | CC(C)OC(=O)C(=C1SCCS1)c1ccc(F)cc1 | 106 to 107 °C
7 | N#Cc1cc(NC(=O)c2ccn(-c3ccc(F)cc3)c2)ccc1N1CCN(C2CCOCC2)CC1 | 240 °C
8 | O=C(NCC12CC3CC(CC(C3)C1)C2)c1cc(-c2cc(F)ccc2C(=O)O)ccc1Cl | 120 to 124 °C
9 | OC(CNC1=NCCN1)c1ccc(Cl)c(Cl)c1 (stereo unspecified) | 148 °C
10 | O=C1CN=C(c2ccccc2)c2ccccc2N1 | 180 to 181 °C
11 | O=C1NC(=NC2CCCC2)C(c2ccc3[nH]ccc3c2)N1c1ccc2[nH]cnc2c1 (stereo unspecified) | 210 °C
12 | CNC(=NC(=O)OC)N(C)C | 80 to 85 °C
13 | Cc1cccc(Nc2ccc(Nc3ncnc4cc(-c5ccccc5)sc34)cc2)c1 | 170 to 171 °C
14 | Nc1nc(-c2ccco2)c(C(=O)C2CCC(=O)CC2)s1 | 232 to 235 °C
15 | Cc1nc2c(c(N3CCN(CCO)CC3)n1)OC(C)C(=O)N2 (stereo unspecified) | 160 to 161 °C
16 | CC(C)=CCN(CC=C(C)C)Cc1noc(-c2ncn3c2[C@@H]2CCN2C(=O)c2ccccc2-3)n1 | 119 to 122 °C
17 | NCCCN1CCC(c2c[nH]c3cc(F)ccc23)CC1 | 102 °C
18 | O=C1c2ccccc2-c2ccc(F)cc21 | 113 to 115 °C
19 | CCN1C(=O)C(C)(C)C(=O)N(C)c2cc(CN(CCn3ccc4oc(C)cc4c3=O)c3cccc4ncccc34)ccc21 | 166 to 168 °C
20 | CN1C/C(=C/C(=O)Nc2ccc(Cl)nn2)C[C@@H]2c3cccc4[nH]cc(c34)C[C@H]21 | 242 to 243 °C
21 | CN1Cc2cncn2-c2ccc(F)cc2C1=O | 236 °C
22 | CSc1cc2n(c1C(=O)c1ccccc1)CCC2C(=O)O (stereo unspecified) | 191 to 192 °C
23 | Cc1nc2c(n1C)CC(C(=O)N(C)C)CC2=O (stereo unspecified) | 190 to 194 °C
24 | O=C(Cc1ccccc1Cl)Nc1ccc(C(=O)N2CCCCc3sccc32)cc1 | 178 to 180 °C
25 | CN1CCC2(CC1)c1ccccc1C(O)c1ccccc12 | 208 to 210 °C
26 | O=S(=O)(Nc1ccc(Cl)cc1-c1nc2ccc(S(=O)(=O)N3CCOCC3)cc2[nH]1)c1ccc(Cl)cc1 | 225 to 228 °C
27 | CNc1c(-c2cc(Cl)ccc2O)c2cc(C(F)(F)F)ccc2[nH]c1=O | 238 to 240 °C

Row | SMILES | melting point
28 | O=C(Cl)C=CC=Cc1ccccc1 | 51 to 52 °C
29 | C[C@@H]1CN(c2c(F)cc3c(=O)c(C(=O)O)cn(C4CC4)c3c2F)C[C@H]1N (relative stereo) | 257 to 260 °C
30 | CCCN(CCC)c1c2c(nn1C)N(c1c(C)cc(C)cc1Cl)CCC2 | 90 to 91 °C
31 | N#CSc1cnn(-c2nc(F)c(C(F)(F)F)cc2Cl)c1N | 109 to 114 °C
32 | Fc1ccccc1COc1nn(Cc2ccccc2F)c2ncccc12 | 57 to 58 °C
33 | CC(C)(C)OC(=O)NC1CC=CC1 | 68 to 70 °C
34 | Cn1cc(C(=O)O)c(=O)c2cc3cc(F)c(N4CCNC(c5ccccc5F)C4)cc3nc21 (racemic) | 264 °C
35 | Cn1cc(C(=O)O)c(=O)c2cc3cc(F)c(N4CCNC(c5ccco5)C4)cc3nc21 (racemic) | 258 to 260 °C
36 | OC(CN1CCNC1=S)c1ccncc1 (stereo unspecified) | 204 °C
37 | O=c1c2ccc(Cl)cc2[nH]c2c(O)nn(C3CCOc4ccccc43)c(=O)c12 (racemic) | > 300 °C
38 | N#CCCCCC(N)=O | 63 to 65 °C
39 | O=S1(=O)N=C(c2ccccc2)c2ccccc21 | 118 °C
40 | Cc1cc(-c2ccc(C(F)(F)F)cc2)nc(-n2cnc(-c3cccc(S(N)(=O)=O)c3)c2)n1 | 186 °C
41 | CC1CC(N)=NN1c1nc2c(s1)CCCC2 (stereo unspecified) | 247 to 249 °C
42 | CC(C#N)C(O)(Cn1cncn1)c1ccc(Cl)cc1Cl (stereo unspecified) | 164 °C
43 | Cc1nnc(NCCNC2CN3CCC2CC3)c2cc3ccccn3c12 (stereo unspecified) | 205 to 208 °C
44 | O=C(Nc1cccc2cc(C(=O)N3CCCCC3)[nH]c12)c1cccs1 | 131 to 132 °C
45 | CC(=O)c1ccc(S(=O)(=O)Nc2cccnc2)cc1 | 182 to 183 °C
46 | O=C1Cc2ccnc(N3CCNCC3)c2N1 | 200 to 204 °C
47 | O=C(NC(Oc1ccc(Cl)cc1)C(Cl)(Cl)Cl)c1ccccc1O (stereo unspecified) | 116 to 117 °C
48 | Cc1cc(NC2=NCCN2)n(CCC(C)C)n1 | 104 to 106 °C
49 | Cc1ccc(-c2ncc3c(n2)CCCCC3)nc1-c1ccccc1 | 151 to 154 °C
50 | O=c1[nH]c2sc3cc(Br)c(F)cc3c2[nH]c1=O | > 300 °C
51 | CC(C)(C)OC(=O)NCCCc1ccc(OCCC2Oc3ccccc3N(Cc3cccc(Cl)c3)C2=O)cc1 (stereo unspecified) | 75 to 81 °C
52 | Oc1cccc(Oc2nnc(Cc3ccncc3)c3ccccc23)c1 | 206 to 207 °C
53 | Cc1nnc(-c2ccc3ncn(C4CCN(Cc5ccccc5)CC4)c3c2)o1 | 173 to 174 °C
54 | Cc1c(NC(=O)c2ccc(-c3ccc(F)cc3)cc2)ccc2cc(CN3CCC(CCCC(=O)N4CCCCC4)CC3)cnc12 | 154 to 156 °C

Continued, values first:

Row | melting point | SMILES
55 | 166 to 168 °C | CCOCc1nc2c(N)nc3ccccc3c2n1CC1(N)CCCCC1
56 | 187 to 194 °C | COc1cc(OC)nc(NC(=O)NS(=O)(=O)c2cccc3sc(C)nc23)n1
57 | 199 to 200 °C | Cc1oc(-c2ccc(-c3ccccc3)cc2)nc1CCOc1ccc(C[C@H](OCC(F)(F)F)C(=O)O)c2ccccc12
58 | 234 to 239 °C | CC(C)NC(=O)c1cc(-n2c(=O)cc(C(F)(F)F)[nH]c2=O)c(F)cc1Cl
59 | 150 to 151 °C | CCCc1c(Cc2ccccc2C(=O)O)cccc1OCCCOc1cc(O)c(-c2ccc(F)cc2)cc1CC
60 | 100 °C | Cc1cccc(-c2ccc3ccc(NC(=O)c4cccc(Br)c4)nc3n2)c1
61 | 243 °C | COc1ccc(C2CC(c3ccccc3OC)=NN2c2ccc(C(=O)O)cc2)cc1 (stereo unspecified)
62 | 95 to 97 °C | CCOC(=O)c1c(C(F)(F)F)nc(C(F)(F)F)c(C)c1OCC(=O)c1ccccc1
63 | 118 to 119 °C | COc1cc(CCC(=O)CC(=O)c2ccc(-c3ccccc3)cc2)ccc1O
64 | 120 °C | CCOC(=O)Nc1cccc(C(=O)Nc2ccc3ccc(OC)nc3n2)c1
65 | 148 to 152 °C | CC(C)(C)C(=O)Oc1ccc(C(O)c2ccc(OC(=O)C(C)(C)C)cc2)cc1
66 | 165 to 175 °C | COc1ccc2nn(C=Cc3ccc(-c4ccccc4)cc3)nc2c1
67 | 113 to 115 °C | CC(C)CCOCc1cc(-n2nc(C(N)=O)nc2-c2ccccc2F)ccc1Cl
68 | 102 °C | CCc1ccc(-c2ccc(-c3ccc(C)s3)c(F)c2)cc1
69 | 113 to 114 °C | CCOC(=O)c1cnoc1-c1ccc(OC)c(OC)c1
70 | 197 to 200 °C | CCOC(=O)c1nc(NC)sc1-c1cn2ccccc2n1
71 | 74 to 75 °C | O=C1c2cc(NCCO)ccc2OC12CC2
72 | 141 to 143 °C | CCOC(=O)C1=C(C)NC(C)=C(C(=O)OCC)C1c1cc([N+](=O)[O-])ccc1OCCCCNCC(O)COc1ccccc1 (stereo unspecified)
73 | 160 to 161 °C | NC(=O)c1cccc(OCc2ccc(Br)cc2)c1
74 | 238 to 240 °C | Cc1csc(-c2nc(-c3ccc(=O)n(C(C)C)n3)c(-c3ccccc3)nc2N)n1
75 | 158 to 160 °C | CCc1nnc2c(Cl)nc3ccccc3n12
76 | > 260 °C | O=C(O)c1cc2cccnc2[nH]1
77 | 97.5 to 98.3 °C | CCCCCS(=O)(=O)NC(=O)/C=C/c1ccc(OCCOC)cc1OCC1CCCCC1
78 | 95 to 97 °C | Cc1cc(-c2noc(C(F)(F)F)n2)cc(C)c1OCCCc1cncs1

Row | melting point | SMILES
79 | 100 to 101 °C | COC(=O)CCCc1cc2nc(Cl)ccc2n1S(=O)(=O)c1ccc(Cl)cc1Cl
80 | 81 to 84 °C | CCOC(=O)Cn1ncc(-c2ccc(OC)cc2)c1-c1ccccc1
81 | 85 to 90 °C | COc1cccc(OC)c1N(COC(C)C)C(=O)CCl
82 | 198 to 200 °C | C[C@@H]1Cc2cc(N3C[C@H](C(N)=O)OC3=O)ccc2N1C(=O)CO
83 | 149 to 151 °C | CCOC(=O)c1cc(NC(C)=O)c(=O)[nH]c1C(=O)OCC
84 | 174 to 177 °C | Nc1ccc(C(=O)Cn2c(-c3nonc3NCCC(=O)O)nc3ccccc32)cc1
85 | 193 to 194 °C | CC(O)c1ccnc(C(=O)c2[nH]c3cc(Cl)ccc3c2CC(=O)O)c1 (stereo unspecified)
86 | 82 to 84 °C | CCCCNC(=O)C(C)n1cc(C)c(-c2ccccc2)n1 (stereo unspecified)
87 | 251 to 254 °C | COc1ccc(-c2nc(N)sc2-c2ccnc(N)c2)cc1
88 | 176 °C | CP(C)(=O)COC(=O)c1ccccc1Nc1ccnc2c(C(F)(F)F)cccc12
89 | 161 to 163 °C | COC(=O)C1C=CCN2C(=O)C(CCOS(C)(=O)=O)(Cc3ccccc3)C(=O)N12 (stereo unspecified)
90 | 83 to 85 °C | CCOC(=O)CC[C@H](NC(=O)/C=C/C(=O)c1ccccc1)C(=O)OCC
91 | 318 to 319 °C | COc1ccccc1-n1c(=O)[nH]c2c(C(N)=O)nc(-n3cnc4ccccc43)nc21
92 | 103 to 104 °C | CCOC(=O)C(=CNC1CC1)C(=O)c1c(N)c(F)c(F)c(OC(F)F)c1F
93 | 128 to 130 °C | COc1ccc(Cn2c(=O)n([C@H]3CC[C@H](O)CC3)c3ncc(C(F)(F)F)cc32)cc1OC
94 | 94 °C | O=Cc1cccnc1Nc1ccccc1F
95 | 126 to 128 °C | CCOC(=O)C(=CNc1cn[nH]c1)C(C)=O
96 | 200 to 202 °C | COc1ccc(C(=O)O)c([N+](=O)[O-])c1OC
97 | 106 to 108 °C | CCc1ccc(-c2ccc(C(=O)c3ccccc3)cc2)cc1
98 | 294 °C | CC(C)(C)c1ccc(-c2cc3ccc(C(=O)O)cc3o2)cc1
99 | 168 to 170 °C | CC1(C)Oc2ccc(C#N)cc2[C@@H](NC(=O)Nc2cccc(-c3ncno3)c2)[C@@H]1O
100 | 174 to 175 °C | COc1cc(C)nc(NC(=O)NS(=O)(=O)c2ccccc2CCC(F)(F)F)n1
101 | 136 to 137 °C | COc1cc(N)c(C)cc1N=Nc1ccc([N+](=O)[O-])cc1
